Structures can show the parent of a compound that is named as a salt.

The target in one data set is KRAS^G12D (Homo sapiens (Human), UniProt P01116, G12D). Put plainly: Assay of the activity of inhibiting KRAS^G12D (TR-FRET, SOS/GTP nucleotide exchange). The data set is classed as biochemical.
The test system of the next data set is p-ERK in GP2D cells. Put plainly: Assay of p-ERK inhibition in GP2D cells (HTRF). Conditions: Homo sapiens, 1 hour incubation. The format is cell-based. On the procedure: 2. Assay Process • 1) GP2D cells were inoculated in a transparent 96-well cell culture plate, and each well contained 80 μL of cell suspension and 8000 cells. The cell plate was inoculated in a carbon dioxide incubator at 37° C. overnight; • 2) 2 μL of the compound was weighed and added to 78 μL of the cell medium. After the mixture was mixed thoroughly, 20 μL of the solution of compound was weighed and added to the corresponding well of the cell plate. The cell plate was placed back to the carbon dioxide incubator and incubated for another 1 hour; • 3) After completion of the incubation, the cell supernatant was discarded. 50 μL of 1× cell lysate was added to each well. The mixture was incubated with shaking at room temperature for 30 minutes; • 4) Phospho-ERK1/2 Eu Cryptate antibody and Phospho-ERK1/2 d2 antibody were diluted 20-fold with detection buffer; • 5) 16 μL of cell lysate supernatant was weighed and added into each well of a new 384 white microwell plate, and then 2 μL of the diluted solution of Phospho-ERK1/2 Eu Cryptate antibody and 2 μL of the diluted solution of Phospho-ERK1/2 d2 antibody dilution were added. The mixture was incubated at room temperature for at least 4 hours; • 6) After completion of the incubation, HTRF was read with multi-label analyzer: excitation: 320 nm, emission: 615 nm, 665 nm; • 7). IC50 of the compounds to be assayed was calculated.

For data set [1], the system named is KRAS G12D mutated GP2D cells. Put plainly: Assay of inhibition of GP2D cell proliferation (CellTiter-Glo 3D). The data set is classed as cell-based. Conditions: Homo sapiens, 120 h, 5 days. On the procedure: The aim of this assay was to verify the inhibitory effect of the compounds of the present disclosure on the proliferation of KRAS G12D mutated GP2D human […] cancer cells.
Cell line GP2D, DMEM medium, and penicillin/streptomycin antibiotics were purchased from Wisent; fetal bovine serum was purchased from Biosera; and CellTiter-Glo® 3D Cell Viability Assay (3D cell viability chemiluminescence assay reagent) reagent was purchased from Promega.
GP2D cells were seeded in a 96-well U-bottom cell culture plate. Each well contained 80 μL of cell suspension containing 2000 GP2D cells. The cell plate was incubated overnight in a CO2 incubator. The compound to be assayed was serially diluted 5-fold with a pipette to the 8th concentration, i.e. diluted from 200 μM to 2.56 nM, to set up a double replicate well assay. 78 μL of medium was added to the middle plate, and then 2 μL per well of the gradient dilution compound was transferred to the middle plate according to the corresponding position. The mixture was mixed well and 20 μL per well was transferred to the cell plate. The concentration of compound transferred to the cell plate ranged from 1 μM to 0.0128 nM. The cell plate was incubated in a CO2 incubator for 5 days. At the end of the incubation of the plate with compounds added, 100 μL of cell viability chemiluminescence detection reagent per well was added to the plate and the plate was incubated at room temperature for 10 minutes to stabilize the luminescence signal. Reading was performed using a multi-label analyzer.
The raw data were converted into an inhibition rate by using an equation (Sample−Min)/(Max−Min)*100%. IC50 value can be obtained by curve fitting with four parameters (“log(inhibitor) vs. response—Variable slope” model in GraphPad Prism).

Data set [2] addresses KRAS^G12D binding to c-Raf (Homo sapiens (Human), UniProt P01116, G12D). As to the kind of experiment: SOS1-mediated binding of KRAS^G12D to effector protein c-Raf (TR-FRET). The format is biochemical.
A short description of data set [3]: Pharmacokinetic evaluation of compounds in mice. The data set is classed as in vivo, CD-1 mice. Conditions: CD-1 male mice, PO, 5.54 mg/kg. On the procedure:
Purpose of assay: To assay the pharmacokinetic data of the compounds in CD-1 mice in vivo.
Compounds were mixed with vehicle 5% DMSO/95% (10% HP-β-CD aqueous solution), and the mixture was vortexed and sonicated to give 0.2 mg/mL-0.3 mg/mL clear solutions. CD-1 male mice aged 7 to 10 weeks were selected, and the candidate compound solution was administered intravenously. Whole blood was collected for a certain period of time to prepare the plasma. The drug concentration was analyzed by LC-MS/MS method and pharmacokinetic parameters were calculated by Phoenix WinNonlin software (Pharsight, USA).
Compounds were mixed with vehicle 5% DMSO/95% (10% HP-β-CD in water), and the mixture was vortexed and sonicated to give 1.6 mg/mL to 4.0 mg/mL clear solutions. CD-1 male mice aged 7 to 10 weeks were selected, and the candidate compound solution was orally administered. Whole blood was collected for a certain period of time to prepare plasma. The drug concentration was analyzed by LC-MS/MS method, and pharmacokinetic parameters were calculated by Phoenix WinNonlin software (Pharsight, USA).

The next data set concerns p-ERK in AGS cells. Put plainly: Assay of p-ERK inhibition in AGS cells (HTRF). The format is cell-based. Conditions: Homo sapiens, 3 hours incubation. On the procedure:
1) AGS cells were inoculated in a transparent 96-well cell culture plate, and each well contained 80 μL of cell suspension and 10000 cells. The cell plate was inoculated in a carbon dioxide incubator at 37° C. overnight; • 2) After completion of the incubation, the cell supernatant was discarded. 80 μL of medium containing 0.02% serum was added to each well. The cell plate was incubated in a carbon dioxide incubator at 37° C. overnight; • 3) 2 μL of the compound was weighed and added to 78 μL of the cell medium. After the mixture was mixed thoroughly, 20 μL of the solution of compound was weighed and added to the corresponding well of the cell plate. The cell plate was placed back to the carbon dioxide incubator and incubated for another 3 hours; • 4) After completion of the incubation, the cell supernatant was discarded. 50 μL of 1× cell lysate was added to each well. The mixture was incubated with shaking at room temperature for 30 minutes; • 5) Phospho-ERK1/2 Eu Cryptate antibody and Phospho-ERK1/2 d2 antibody were diluted 20-fold with detection buffer; • 6) 16 μL of cell lysate supernatant was weighed and added into each well of a new 384 white microwell plate, and then 2 μL of the diluted solution of Phospho-ERK1/2 Eu Cryptate antibody and 2 μL of the diluted solution of Phospho-ERK1/2 d2 antibody dilution were added. The mixture was incubated at room temperature for at least 4 hours; • 7) After completion of the incubation, HTRF was read with multi-label analyzer: excitation: 320 nm, emission: 615 nm, 665 nm; • 8). IC50 of the compounds to be assayed was calculated.

Sequence of KRAS^G12D (P01116-2 other isoform, or with tags, fused parts or gaps G12D): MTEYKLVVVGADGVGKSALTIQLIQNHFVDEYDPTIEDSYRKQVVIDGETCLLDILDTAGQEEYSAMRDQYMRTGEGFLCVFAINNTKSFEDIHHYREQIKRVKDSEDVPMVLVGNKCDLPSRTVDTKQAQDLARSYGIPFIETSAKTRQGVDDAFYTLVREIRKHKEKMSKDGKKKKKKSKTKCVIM
Sequence of KRAS^G12D binding to c-Raf (P01116-2 other isoform, or with tags, fused parts or gaps G12D): as above

Turning to `Oc1cc(-c2c(Cl)cc3c(N4CC5CCC(C4)N5)nc(OC[C@@]45CCCN4C[C@H](F)C5)nc3c2F)c2ccccc2c1` (single isomer, unassigned) [Compound 027 hydrochloride], half-maximal inhibition on KRAS^G12D (IC50) was put at 38.6 nM.
Turning to `Oc1cc(-c2ccc3c(N4CC5CCC(C4)N5)nc(OC[C@@]45CCCN4C[C@H](F)C5)nc3c2F)c2c(F)c(F)ccc2c1` [Compound 011 hydrochloride], the IC50 in the data set on p-ERK in GP2D cells was 0.016 nM; in data set [1], 6.2 nM.
Consider `CCc1c(F)ccc2cc(O)cc(-c3ccc4c(N5CC6CCC(C5)N6)nc(OC[C@@]56CCCN5C[C@H](F)C6)nc4c3Cl)c12` [Compound 024 formate], for which the IC50 stood at 4.4 nM with p-ERK in GP2D cells and 16 nM in data set [1].
In turn, `Oc1cc(-c2c(F)cc3c(N4CC5CCC(C4)N5)nc(OC[C@@]45CCCN4C[C@H](F)C5)nc3c2Cl)c2ccccc2c1` [Compound 008 hydrochloride] yielded a half-maximal inhibitory concentration (IC50) at KRAS^G12D of 1.3 nM.
As to `C#Cc1c(F)ccc2cc(N)cc(-c3c(Cl)cc4c(N5CC6CCC(C5)N6)nc(OC[C@@]56CCCN5C[C@H](F)C6)nc4c3F)c12` (single isomer, unassigned) [Compound 016B], the results for the IC50 (in the data set with p-ERK in GP2D cells; in data set [2]) were 0.67 nM and 6.23 nM, respectively.
In turn, `C#Cc1c(F)ccc2cc(O)cc(-c3ccc4c(N5CC6CCC(C5)N6)nc(OC[C@@]56CCCN5C[C@H](F)C6)nc4c3F)c12` [Compound 010 hydrochloride] displayed an IC50 in the data set on p-ERK in GP2D cells of 0.055 nM. In data set [1], this molecule gave an IC50 of 3.6 nM. The AUCu in data set [3] (AUCu = AUC0-inf *Unbound PPB (Mouse)) came out at 0.0025 µM·h. In data set [3] (mouse, plasma), this molecule had an AUC(0-inf) of 0.125 µM·h, a Cmax of 54 nM, a bioavailability of 5.1% and a half-life of 1.6 h.
Consider `Nc1nc2c(-c3c(F)cc4c(N5CC6CCC(C5)N6)nc(OC[C@@]56CCCN5C[C@H](F)C6)nc4c3Cl)ccc(F)c2s1` [Compound 007 hydrochloride], for which it took 0.4 nM to reach half-maximal inhibition against KRAS^G12D (IC50).
For the molecule `Nc1nc2c(-c3c(F)cc4c(N5CC6CCC(C5)N6)nc(OC[C@@]56CCCN5C[C@H](F)C6)nc4c3F)ccc(F)c2s1` [Compound 020 formate], on KRAS^G12D, the IC50 was determined as 6.6 nM.
Regarding `Oc1cc(-c2c(Cl)cc3c(N4CC5CCC(C4)N5)nc(OC[C@@]45CCCN4C[C@H](F)C5)nc3c2F)c2ccccc2c1` [Compound 001 formate], the values for the IC50 on KRAS^G12D and with p-ERK in AGS cells were 9.2 nM and 292 nM, respectively.
With `C#Cc1c(F)ccc2cc(N)cc(-c3c(F)cc4c(N5CC6C=CC(C5)N6)nc(OC[C@@]56CCCN5C[C@H](F)C6)nc4c3F)c12` [Compound 034], the IC50 in data set [2] is 22.5 nM.
In the case of `Cc1cc(N)c(F)c(-c2c(Cl)cc3c(N4CC5CCC(C4)N5)nc(OC[C@@]45CCCN4C[C@H](F)C5)nc3c2F)c1C(F)(F)F` [Compound 022 formate], in the data set on p-ERK in GP2D cells, the IC50 worked out at 11.6 nM.
Turning to `N#Cc1c(N)sc2c(F)ccc(-c3c(Cl)cc4c(N5CC6CCC(C5)N6)nc(OC[C@@]56CCCN5C[C@H](F)C6)nc4c3F)c12` [Compound 012 formate], the IC50 with p-ERK in GP2D cells is 0.71 nM; in data set [1], 0.94 nM.
As for `CCc1c(F)ccc2cc(O)cc(-c3ccc4c(N5CC6CCC(C5)N6)nc(OC[C@@]56CCCN5C[C@H](F)C6)nc4c3F)c12` [Compound 006 hydrochloride], the figures for the IC50 (in the data set with p-ERK in AGS cells; in data set [1]) were 67.1 nM and 2.04 nM, respectively.
In the data set with p-ERK in GP2D cells, `Cc1cc(N)nc(-c2c(Cl)cc3c(N4CC5CCC(C4)N5)nc(OC[C@@]45CCCN4C[C@H](F)C5)nc3c2F)c1C(F)(F)F` [Compound 018 trifluoroacetate] yielded an IC50 of 1.6 nM.
In the data set with p-ERK in GP2D cells, `Cc1cc(N)nc(-c2ccc3c(N4CC5CCC(C4)N5)nc(OC[C@@]45CCCN4C[C@H](F)C5)nc3c2F)c1C(F)(F)F` [Compound 019 hydrochloride] displayed an IC50 of 21.4 nM.
Regarding `Nc1nc2c(-c3c(Cl)cc4c(N5CC6CCC(C5)N6)nc(OC[C@@]56CCCN5C[C@H](F)C6)nc4c3F)ccc(F)c2s1` [Compound 004], the IC50 against KRAS^G12D was found to be 0.5 nM; in the data set with p-ERK in AGS cells, 31.4 nM.
In the case of `Nc1cc(-c2ccc3c(N4CC5CCC(C4)N5)nc(OC[C@@]45CCCN4C[C@H](F)C5)nc3c2F)c2c(F)c(F)ccc2c1` [Compound 013 hydrochloride], it took 0.88 nM to reach half-maximal inhibition in the data set on p-ERK in GP2D cells (IC50).
With `Oc1cc(-c2ccc3c(N4CC5CCC(C4)N5)nc(OC[C@@]45CCCN4C[C@H](F)C5)nc3c2F)c2ccccc2c1` [Compound 005 hydrochloride], the values for the IC50 at KRAS^G12D and with p-ERK in AGS cells were 0.1 nM and 147 nM, respectively.

The values above are taken from patent US20240174692A1, “PYRIMIDINE AROMATIC RING COMPOUNDS” (Medshine Discovery Inc., priority 2021, published 2024).
